From ChEMBL document CHEMBL1641501, “Discovery of selective irreversible inhibitors for EGFR-T790M” (Bioorg Med Chem Lett, 2011)
Active and inactive are the calls of the source. The calls are words filed in the database; no cut-off is given here.

What was measured:
[1] = system: PC-9; experiment: Antiproliferative activity against EGFR-deficient human PC9 cells; type: functional, cell-based
[2] = system: PC-9; experiment: Antiproliferative activity against growth-resistant human PC9 cells expressing EGFR E746_A750/T790M mutant; type: functional, cell-based
[3] = target: Tyrosine-protein kinase Blk (Homo sapiens) (UniProt P51451); experiment: Inhibition of Blk transfected with TEL fusion in mouse BA/F3 cells; type: cell-based; details: BaF3
[4] = Antiproliferative activity against mouse BA/F3 cells transfected with EGFR L858R/T790M mutant; type: functional, cell-based; details: BaF3
[5] = Antiproliferative activity against mouse BA/F3 cells transfected with EGFR E746_A750_del/T790M/C797S mutant; type: functional, cell-based; details: BaF3
[6] = target: T1, Cytoplasmic tyrosine-protein kinase BMX (Homo sapiens) (UniProt P51813); experiment: Inhibition of Bmx transfected with TEL fusion in mouse BA/F3 cells; type: cell-based; details: BaF3
T1 sequence (whole entry): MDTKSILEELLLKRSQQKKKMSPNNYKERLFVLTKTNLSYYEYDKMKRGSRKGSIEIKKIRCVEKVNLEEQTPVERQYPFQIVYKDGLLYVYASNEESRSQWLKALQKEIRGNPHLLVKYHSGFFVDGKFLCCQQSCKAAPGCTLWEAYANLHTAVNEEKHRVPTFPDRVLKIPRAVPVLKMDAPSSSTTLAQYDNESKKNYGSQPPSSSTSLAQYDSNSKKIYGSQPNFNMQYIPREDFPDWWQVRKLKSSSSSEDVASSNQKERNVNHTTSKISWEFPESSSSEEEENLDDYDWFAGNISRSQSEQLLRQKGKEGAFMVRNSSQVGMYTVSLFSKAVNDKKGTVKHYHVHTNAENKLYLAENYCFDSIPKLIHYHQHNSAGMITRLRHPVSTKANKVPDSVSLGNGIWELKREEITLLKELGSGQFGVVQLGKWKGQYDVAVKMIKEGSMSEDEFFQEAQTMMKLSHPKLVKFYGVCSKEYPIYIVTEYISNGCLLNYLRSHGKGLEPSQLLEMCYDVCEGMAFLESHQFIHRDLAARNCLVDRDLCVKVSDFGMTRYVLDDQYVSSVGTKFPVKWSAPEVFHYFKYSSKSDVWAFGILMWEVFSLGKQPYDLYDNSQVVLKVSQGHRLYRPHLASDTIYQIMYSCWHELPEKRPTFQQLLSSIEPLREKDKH

[7] = Antiproliferative activity against mouse BA/F3 cells transfected with EGFR E746_A750/T790M mutant; type: functional, cell-based; details: BaF3
[8] = Antiproliferative activity against mouse BA/F3 cells transfected with EGFR L858R/T790M/C797S mutant; type: functional, cell-based; details: BaF3
[9] = Antiproliferative activity against mouse BA/F3 cells transfected with EGFR E746_A750_del/T790M mutant; type: functional, cell-based; details: BaF3
[10] = target: T2, Tyrosine-protein kinase JAK3 (Homo sapiens) (UniProt P52333); experiment: Inhibition of Jak3 transfected with TEL fusion in mouse BA/F3 cells; type: cell-based; details: BaF3
T2 sequence (whole entry): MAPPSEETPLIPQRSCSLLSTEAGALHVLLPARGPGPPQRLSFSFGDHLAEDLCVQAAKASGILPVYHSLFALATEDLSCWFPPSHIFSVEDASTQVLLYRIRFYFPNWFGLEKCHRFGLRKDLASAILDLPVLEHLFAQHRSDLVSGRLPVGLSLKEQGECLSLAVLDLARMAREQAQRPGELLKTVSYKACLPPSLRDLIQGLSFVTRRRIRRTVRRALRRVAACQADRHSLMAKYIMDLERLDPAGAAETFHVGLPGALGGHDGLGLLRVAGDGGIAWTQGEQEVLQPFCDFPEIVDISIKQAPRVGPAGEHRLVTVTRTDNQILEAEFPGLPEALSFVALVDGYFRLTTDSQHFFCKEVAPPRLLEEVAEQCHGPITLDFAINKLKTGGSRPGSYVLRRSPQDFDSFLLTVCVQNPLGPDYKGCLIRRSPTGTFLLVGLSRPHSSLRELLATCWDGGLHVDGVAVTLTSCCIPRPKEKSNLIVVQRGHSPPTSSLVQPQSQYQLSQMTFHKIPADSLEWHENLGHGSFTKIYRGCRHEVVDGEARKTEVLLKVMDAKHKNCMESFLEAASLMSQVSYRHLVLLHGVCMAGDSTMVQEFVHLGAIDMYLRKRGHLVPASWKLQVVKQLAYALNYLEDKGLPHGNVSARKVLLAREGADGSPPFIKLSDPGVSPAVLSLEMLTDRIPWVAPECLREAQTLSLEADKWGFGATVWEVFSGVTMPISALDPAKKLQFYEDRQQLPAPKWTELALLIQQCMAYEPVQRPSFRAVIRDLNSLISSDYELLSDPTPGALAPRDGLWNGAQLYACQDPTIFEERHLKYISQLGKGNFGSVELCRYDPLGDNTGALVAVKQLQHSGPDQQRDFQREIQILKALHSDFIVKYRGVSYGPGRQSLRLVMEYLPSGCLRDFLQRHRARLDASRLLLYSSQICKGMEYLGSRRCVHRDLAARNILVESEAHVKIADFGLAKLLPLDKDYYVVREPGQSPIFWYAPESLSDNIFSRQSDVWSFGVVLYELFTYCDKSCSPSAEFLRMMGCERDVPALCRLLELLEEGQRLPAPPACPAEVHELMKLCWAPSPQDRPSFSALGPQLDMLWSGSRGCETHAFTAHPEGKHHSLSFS

Chain of Tyrosine-protein kinase Blk (Homo sapiens) (P51451 2-505 limits assumed): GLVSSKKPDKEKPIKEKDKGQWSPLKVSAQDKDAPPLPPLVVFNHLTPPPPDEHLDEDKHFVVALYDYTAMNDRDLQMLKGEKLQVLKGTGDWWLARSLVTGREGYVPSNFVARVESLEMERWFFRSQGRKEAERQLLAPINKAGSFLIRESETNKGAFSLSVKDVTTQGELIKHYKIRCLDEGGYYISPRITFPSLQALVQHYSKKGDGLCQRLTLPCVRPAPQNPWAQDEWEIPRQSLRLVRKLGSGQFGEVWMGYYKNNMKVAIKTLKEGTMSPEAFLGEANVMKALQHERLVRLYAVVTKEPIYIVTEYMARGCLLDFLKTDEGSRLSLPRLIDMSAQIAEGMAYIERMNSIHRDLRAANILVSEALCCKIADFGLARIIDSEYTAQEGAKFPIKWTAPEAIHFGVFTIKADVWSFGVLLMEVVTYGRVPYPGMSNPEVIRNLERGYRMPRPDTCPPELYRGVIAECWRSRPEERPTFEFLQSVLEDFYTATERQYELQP

Row | Compound | EC50 [1] [nM] | EC50 [2] [nM] | also measured
1 | C=CC(=O)Nc1cccc(Oc2[nH]cnc3ncc(-c4cnc5ccccc5c4)c2-3)c1 | 6000 | 8000 | –
2 | C=CC(=O)Nc1cccc(Oc2ncnc3[nH]cc(-c4cccnc4)c23)c1 | 500 | 500 | –
3 | C=CC(=O)Nc1cccc(Oc2nc(Nc3ccc(CC(=O)N4CCN(C)CC4)cc3)ncc2Cl)c1 | – | 50 | –
4 | C=CC(=O)Nc1cccc(Oc2nc(Nc3ccc(N4CCN(C)CC4)cc3)ncc2Cl)c1 | 15 | 3 | –
5 | C=CC(=O)Nc1cccc(Oc2nc(Nc3ccc(-c4ccncc4)cc3OC)ncc2Cl)c1 | – | 900 | –
6 | C=CC(=O)Nc1cccc(Sc2nc(Nc3ccc(N4CCN(C)CC4)cc3)ncc2Cl)c1 | 6 | 8 | –
7 | C=CC(=O)Nc1cccc(Oc2nc(Nc3ccc(C(=O)NC4CCN(C)CC4)cc3)ncc2Cl)c1 | 800 | 1000 | –
8 | C=CC(=O)Nc1cccc(Oc2nc(Nc3ccc(CCN4CCN(C)CC4)cc3)ncc2Cl)c1 | – | 8 | –
9 | C=CC(=O)Nc1cccc(Oc2nc(Nc3ccc(C(=O)N4CCN(C)CC4)cc3)ncc2Cl)c1 | 800 | 800 | –
10 | C=CC(=O)Nc1cccc(Oc2nc(Nc3ccc(C4CCCN(C)C4)cc3OC)ncc2Cl)c1 (centres undefined) | 100 | 200 | –
11 | C=CC(=O)N1CCCC(Nc2nc(Nc3ccc(C(=O)N4CCN(C)CC4)cc3)nc3[nH]cnc23)C1 (centres undefined) | 10000 | 10000 | –
12 | C=CC(=O)Nc1cccc(Oc2nc(Nc3ccc(N4CCN(C)CC4)cc3OC)ncc2Cl)c1 | 36 | 14 | inhibition [3]: Active; EC50 [4]: 8 nM; EC50 [5]: > 3300 nM; inhibition [6]: Active; EC50 [7]: 1290 nM; EC50 [8]: > 3300 nM; EC50 [9]: 2 nM; inhibition [10]: Active
13 | C=CC(=O)Nc1ccc(Oc2ncnc3[nH]cc(-c4cccnc4)c23)cc1 | 6000 | 6000 | –
14 | C=CC(=O)Nc1cccc(Oc2nc(Nc3ccc(C(=O)N4CCN(C)CC4)cc3OC)ncc2Cl)c1 | > 1000 | > 1000 | –
15 | C=CC(=O)Nc1cccc(Oc2nc(Nc3ccc(C4CCN(C)CC4)cc3OC)ncc2Cl)c1 | 100 | 40 | –
16 | C=CC(=O)Nc1cccc(Oc2nc(Nc3ccc(N4CCN(C)CC4)cc3)ncc2Br)c1 | 800 | 900 | –
17 | C=CC(=O)Nc1cccc(Oc2nc(Nc3ccc(N4CCN(C)CC4)cc3)ncc2C(F)(F)F)c1 | 700 | 800 | –
18 | C=CC(=O)Nc1cccc(Oc2nc(Nc3ccc(N4CCOCC4)cc3OC)ncc2Cl)c1 | – | 150 | –
19 | C=CC(=O)N1CCCC(N(C)c2nc(Nc3ccc(N(C)C(=O)CC)cc3)nc3[nH]cnc23)C1 (centres undefined) | 900 | 6000 | –
20 | C=CC(=O)Nc1cccc(Oc2nc(Nc3ccc(C(=O)NC4CCN(C)CC4)cc3OC)ncc2Cl)c1 | 500 | 800 | –

Row | Compound | EC50 [1] [nM] | EC50 [2] [nM] | also measured
21 | C=CC(=O)Nc1cccc(Oc2nc(Nc3ccc(C4=CCN(C)CC4)cc3OC)ncc2Cl)c1 | – | 200 | –
22 | C=CC(=O)Nc1cccc(Oc2nc(Nc3ccc(N4CCC(O)CC4)cc3OC)ncc2Cl)c1 | 200 | 800 | –
23 | C=CC(=O)Nc1cccc(Oc2nc(Nc3ccc(N4CCC(N5CCN(C)CC5)CC4)cc3OC)ncc2Cl)c1 | 80 | 100 | –
24 | C=CC(=O)Nc1cccc(Oc2ncnc3[nH]cc(-c4ccc(OC)cc4)c23)c1 | 6000 | 6000 | –
25 | C=CC(=O)Nc1cccc(Nc2nc(Nc3ccc(N4CCN(C)CC4)cc3OC)ncc2Cl)c1 | 40 | 20 | –
26 | C=CC(=O)Nc1cccc(Oc2nc(Nc3ccc(CN4CCN(C)CC4)cc3)ncc2Cl)c1 | – | 30 | –
27 | C=CC(=O)N1CCCC(Nc2nc(Nc3ccc(N4CCN(C)CC4)cc3)nc3[nH]cnc23)C1 (centres undefined) | 1000 | 5000 | –
28 | C=CC(=O)Nc1cccc(Oc2nc(Nc3ccc(C(=O)NCCN4CCOCC4)cc3OC)ncc2Cl)c1 | – | 500 | –
29 | C=CC(=O)Nc1cccc(Oc2nc(Nc3ccc(N4CCN(C)CC4)cc3)nc3[nH]cnc23)c1 | 300 | 600 | –
30 | C=CC(=O)Nc1cccc(Oc2nc(Nc3ccc(N4CCN(C)CC4)cc3OC)ncc2Cl)c1F | – | 31 | –
31 | C=CC(=O)Nc1cccc(Oc2nc(Nc3ccc(N4CCN(C)CC4)cc3OC)ncc2Cl)c1Cl | > 1000 | > 1000 | –
32 | C=CC(=O)Nc1cccc(Oc2ccnc(Nc3ccc(N4CCN(C)CC4)cc3)n2)c1 | 80 | > 1000 | –
33 | C=CC(=O)Nc1cccc(Oc2nc(Nc3ccc(F)cc3OC)ncc2Cl)c1 | – | 800 | –
34 | C=CC(=O)Nc1cccc(Sc2nc(Nc3ccc(N4CCN(C)CC4)cc3OC)ncc2Cl)c1 | 20 | 20 | –
35 | C=CC(=O)Nc1cc(F)cc(Oc2nc(Nc3ccc(N4CCN(C)CC4)cc3OC)ncc2Cl)c1 | – | 20 | –
36 | C=CC(=O)N1CCCC(Nc2nc(Nc3ccc(N(C)C(=O)CC)cc3)nc3[nH]cnc23)C1 (centres undefined) | 7000 | 10000 | –
37 | C=CC(=O)Nc1cccc(Oc2nc(Nc3ccc(CN4CCN(C)CC4)cc3C(F)(F)F)ncc2Cl)c1 | – | 420 | –
38 | C=CC(=O)Nc1cccc(Oc2nc(Nc3ccc(N4CCN(C)CC4)cc3C(F)(F)F)ncc2Cl)c1 | – | 90 | –
39 | C=CC(=O)Nc1ccc(Oc2ncnc3[nH]cc(-c4cnc5ccccc5c4)c23)cc1 | 10000 | 10000 | –
